ChEMBL document CHEMBL4033619, “Autophagy antagonizes apoptosis induced by flavan enantiomers from Daphne giraldii in hepatic carcinoma cells in vitro” (Eur J Med Chem, 2017)

What was measured:
Type in all cases: functional, cell-based
MCF7 [1] = assay: Cytotoxicity against human MCF7 cells by MTT assay
A549 [2] = assay: Cytotoxicity against human A549 cells by MTT assay
HepG2 [3] = assay: Cytotoxicity against human HepG2 cells by MTT assay
Hep 3B2 [4] = assay: Cytotoxicity against human Hep3B cells by MTT assay
MCF7 [5] = assay: Growth inhibition of human MCF7 cells after 48 hrs by MTT assay
A549 [6] = assay: Growth inhibition of human A549 cells after 48 hrs by MTT assay
HepG2 [7] = assay: Growth inhibition of human HepG2 cells after 48 hrs by MTT assay
Hep 3B2 [8] = assay: Growth inhibition of human Hep3B cells after 48 hrs by MTT assay

| SMILES | IC50 (MCF7 [1]) [µM] | IC50 (A549 [2]) [µM] | IC50 (HepG2 [3]) [µM] | IC50 (Hep 3B2 [4]) [µM] | growth inhibition (GI) (MCF7 [5]) | growth inhibition (GI) (A549 [6]) | growth inhibition (GI) (HepG2 [7]) | growth inhibition (GI) (Hep 3B2 [8]) |
| --- | --- | --- | --- | --- | --- | --- | --- | --- |
| CC(C)=CCc1c(C2CCc3ccc(O)cc3O2)cc2c(c1O)OC(C)(C)C=C2 (racemic) | > 100 | 92.5 | 92.3 | 97.8 | Dose-dependent effect | Dose-dependent effect | Dose-dependent effect | Dose-dependent effect |
| CC1(C)CCc2c([C@@H]3CCc4ccc(O)cc4O3)ccc(O)c2O1 | > 100 | > 100 | > 100 | 44.7 | Dose-dependent effect | Dose-dependent effect | Dose-dependent effect | Dose-dependent effect |
| CC1(C)C=Cc2c([C@H]3CCc4ccc(O)cc4O3)ccc(O)c2O1 | > 100 | > 100 | > 100 | 63.6 | Dose-dependent effect | Dose-dependent effect | Dose-dependent effect | Dose-dependent effect |
| CC1(C)CCc2c([C@H]3CCc4ccc(O)cc4O3)ccc(O)c2O1 | > 100 | > 100 | > 100 | 41.7 | Dose-dependent effect | Dose-dependent effect | Dose-dependent effect | Dose-dependent effect |
| CC1(C)CCc2c(C3CCc4ccc(O)cc4O3)ccc(O)c2O1 (racemic) | > 100 | > 100 | > 100 | 51 | Dose-dependent effect | Dose-dependent effect | Dose-dependent effect | Dose-dependent effect |
| CC1(C)C=Cc2c([C@@H]3CCc4ccc(O)cc4O3)ccc(O)c2O1 | > 100 | > 100 | > 100 | 75.7 | Dose-dependent effect | Dose-dependent effect | Dose-dependent effect | Dose-dependent effect |
